Test results published in ChEMBL document CHEMBL1140726, “Discovery and biological evaluation of 5-aryl-2-furfuramides, potent and selective blockers of the Nav1.8 sodium channel with efficacy in models of neuropathic and inflammatory pain” (J Med Chem, 2008).

Experiments:
Rattus norvegicus [1] = experiment: Antinociceptive activity in ip dosed Sprague-Dawley rat assessed as attenuation of mechanical allodynia in chung model of neuropathic pain; format: functional
Rattus norvegicus [2] = experiment: Antinociceptive activity in ip dosed Sprague-Dawley rat assessed as reduction of CFA-induced thermal hyperalgesia; format: functional; set-up: Activity: scale not given: the % may be the effect or the level left
[3] = biological target: Sodium channel protein type 2 subunit alpha (Homo sapiens) (UniProt Q99250); experiment: Inhibition of human Nav1.2 channel at 3 uM
[4] = biological target: Sodium channel protein type 3 subunit alpha (Homo sapiens) (UniProt Q9NY46); experiment: Inhibition of human Nav1.3 channel at 10 uM
Sequence of Sodium channel protein type 3 subunit alpha (Homo sapiens) (Q9NY46 whole entry, looked up): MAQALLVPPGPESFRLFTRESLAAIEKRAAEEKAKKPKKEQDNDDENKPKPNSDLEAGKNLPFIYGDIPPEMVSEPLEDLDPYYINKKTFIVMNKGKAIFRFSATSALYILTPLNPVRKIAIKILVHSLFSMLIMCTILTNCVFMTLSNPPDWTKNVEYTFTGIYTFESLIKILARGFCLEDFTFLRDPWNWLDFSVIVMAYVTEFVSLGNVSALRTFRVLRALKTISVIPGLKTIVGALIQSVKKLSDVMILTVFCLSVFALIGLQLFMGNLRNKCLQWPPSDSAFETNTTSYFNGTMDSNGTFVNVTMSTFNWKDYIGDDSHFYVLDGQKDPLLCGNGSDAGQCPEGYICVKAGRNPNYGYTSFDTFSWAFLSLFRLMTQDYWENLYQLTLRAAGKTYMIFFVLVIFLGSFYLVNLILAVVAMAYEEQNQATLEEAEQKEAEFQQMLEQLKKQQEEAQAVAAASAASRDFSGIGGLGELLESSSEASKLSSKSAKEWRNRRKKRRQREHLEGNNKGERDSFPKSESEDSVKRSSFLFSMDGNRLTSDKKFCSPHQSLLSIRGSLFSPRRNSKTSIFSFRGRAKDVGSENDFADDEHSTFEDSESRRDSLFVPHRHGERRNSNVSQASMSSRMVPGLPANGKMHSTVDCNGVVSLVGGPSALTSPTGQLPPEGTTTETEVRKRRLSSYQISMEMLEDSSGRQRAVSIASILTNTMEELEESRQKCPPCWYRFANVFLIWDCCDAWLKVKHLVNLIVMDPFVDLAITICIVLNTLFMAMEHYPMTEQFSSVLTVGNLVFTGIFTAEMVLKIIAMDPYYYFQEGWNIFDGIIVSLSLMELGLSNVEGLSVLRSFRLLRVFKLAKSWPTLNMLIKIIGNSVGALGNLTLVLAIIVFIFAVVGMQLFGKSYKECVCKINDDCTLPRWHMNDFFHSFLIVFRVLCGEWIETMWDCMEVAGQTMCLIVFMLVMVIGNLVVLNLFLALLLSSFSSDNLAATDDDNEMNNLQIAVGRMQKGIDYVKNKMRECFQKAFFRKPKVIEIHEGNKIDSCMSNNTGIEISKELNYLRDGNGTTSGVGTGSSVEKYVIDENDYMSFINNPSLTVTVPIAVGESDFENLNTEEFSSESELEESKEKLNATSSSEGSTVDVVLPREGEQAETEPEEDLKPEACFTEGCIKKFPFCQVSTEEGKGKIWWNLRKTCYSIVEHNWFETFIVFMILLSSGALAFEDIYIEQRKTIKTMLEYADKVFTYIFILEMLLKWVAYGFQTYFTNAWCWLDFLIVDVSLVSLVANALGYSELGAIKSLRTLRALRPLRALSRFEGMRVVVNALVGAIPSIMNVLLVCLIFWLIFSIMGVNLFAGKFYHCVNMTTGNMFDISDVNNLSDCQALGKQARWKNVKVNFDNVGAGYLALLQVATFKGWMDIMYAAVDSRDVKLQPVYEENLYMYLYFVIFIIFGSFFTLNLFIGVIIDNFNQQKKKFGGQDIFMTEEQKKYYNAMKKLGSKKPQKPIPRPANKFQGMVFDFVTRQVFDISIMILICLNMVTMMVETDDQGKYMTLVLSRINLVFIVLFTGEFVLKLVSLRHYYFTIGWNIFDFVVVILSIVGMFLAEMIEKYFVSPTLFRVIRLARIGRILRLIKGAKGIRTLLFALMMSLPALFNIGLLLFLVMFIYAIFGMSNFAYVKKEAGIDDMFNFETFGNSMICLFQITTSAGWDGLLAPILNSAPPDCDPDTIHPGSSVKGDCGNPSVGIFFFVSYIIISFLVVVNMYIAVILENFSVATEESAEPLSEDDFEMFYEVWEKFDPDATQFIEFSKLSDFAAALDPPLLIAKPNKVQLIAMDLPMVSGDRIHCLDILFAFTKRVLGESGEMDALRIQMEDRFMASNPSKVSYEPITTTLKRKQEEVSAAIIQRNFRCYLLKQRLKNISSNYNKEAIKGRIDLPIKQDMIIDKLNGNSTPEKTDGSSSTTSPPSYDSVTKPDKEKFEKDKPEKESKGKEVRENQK

[5] = biological target: T1, Cholecystokinin receptor type A (Homo sapiens, UniProt P32238); experiment: Binding affinity to CCKAR
T1 sequence (P32238 whole entry): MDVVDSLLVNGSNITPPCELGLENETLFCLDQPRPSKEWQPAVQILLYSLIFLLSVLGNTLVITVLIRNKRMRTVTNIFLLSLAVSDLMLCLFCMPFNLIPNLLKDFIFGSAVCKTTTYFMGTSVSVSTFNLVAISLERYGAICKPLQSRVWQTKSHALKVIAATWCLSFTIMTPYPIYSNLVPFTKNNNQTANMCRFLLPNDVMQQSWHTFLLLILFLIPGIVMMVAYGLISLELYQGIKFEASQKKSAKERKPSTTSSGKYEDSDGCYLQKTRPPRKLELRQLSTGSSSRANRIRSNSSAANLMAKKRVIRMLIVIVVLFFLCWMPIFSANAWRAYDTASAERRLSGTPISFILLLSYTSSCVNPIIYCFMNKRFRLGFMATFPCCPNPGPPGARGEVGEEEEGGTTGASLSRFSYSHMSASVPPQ

[6] = biological target: T2, Sodium channel protein type 10 subunit alpha (Homo sapiens, UniProt Q9Y5Y9); experiment: Inhibition of human recombinant Nav 1.8 channel expressed in HEK293 cells at 0.003 uM; format: cell-based
T2 sequence (Q9Y5Y9 whole entry, looked up): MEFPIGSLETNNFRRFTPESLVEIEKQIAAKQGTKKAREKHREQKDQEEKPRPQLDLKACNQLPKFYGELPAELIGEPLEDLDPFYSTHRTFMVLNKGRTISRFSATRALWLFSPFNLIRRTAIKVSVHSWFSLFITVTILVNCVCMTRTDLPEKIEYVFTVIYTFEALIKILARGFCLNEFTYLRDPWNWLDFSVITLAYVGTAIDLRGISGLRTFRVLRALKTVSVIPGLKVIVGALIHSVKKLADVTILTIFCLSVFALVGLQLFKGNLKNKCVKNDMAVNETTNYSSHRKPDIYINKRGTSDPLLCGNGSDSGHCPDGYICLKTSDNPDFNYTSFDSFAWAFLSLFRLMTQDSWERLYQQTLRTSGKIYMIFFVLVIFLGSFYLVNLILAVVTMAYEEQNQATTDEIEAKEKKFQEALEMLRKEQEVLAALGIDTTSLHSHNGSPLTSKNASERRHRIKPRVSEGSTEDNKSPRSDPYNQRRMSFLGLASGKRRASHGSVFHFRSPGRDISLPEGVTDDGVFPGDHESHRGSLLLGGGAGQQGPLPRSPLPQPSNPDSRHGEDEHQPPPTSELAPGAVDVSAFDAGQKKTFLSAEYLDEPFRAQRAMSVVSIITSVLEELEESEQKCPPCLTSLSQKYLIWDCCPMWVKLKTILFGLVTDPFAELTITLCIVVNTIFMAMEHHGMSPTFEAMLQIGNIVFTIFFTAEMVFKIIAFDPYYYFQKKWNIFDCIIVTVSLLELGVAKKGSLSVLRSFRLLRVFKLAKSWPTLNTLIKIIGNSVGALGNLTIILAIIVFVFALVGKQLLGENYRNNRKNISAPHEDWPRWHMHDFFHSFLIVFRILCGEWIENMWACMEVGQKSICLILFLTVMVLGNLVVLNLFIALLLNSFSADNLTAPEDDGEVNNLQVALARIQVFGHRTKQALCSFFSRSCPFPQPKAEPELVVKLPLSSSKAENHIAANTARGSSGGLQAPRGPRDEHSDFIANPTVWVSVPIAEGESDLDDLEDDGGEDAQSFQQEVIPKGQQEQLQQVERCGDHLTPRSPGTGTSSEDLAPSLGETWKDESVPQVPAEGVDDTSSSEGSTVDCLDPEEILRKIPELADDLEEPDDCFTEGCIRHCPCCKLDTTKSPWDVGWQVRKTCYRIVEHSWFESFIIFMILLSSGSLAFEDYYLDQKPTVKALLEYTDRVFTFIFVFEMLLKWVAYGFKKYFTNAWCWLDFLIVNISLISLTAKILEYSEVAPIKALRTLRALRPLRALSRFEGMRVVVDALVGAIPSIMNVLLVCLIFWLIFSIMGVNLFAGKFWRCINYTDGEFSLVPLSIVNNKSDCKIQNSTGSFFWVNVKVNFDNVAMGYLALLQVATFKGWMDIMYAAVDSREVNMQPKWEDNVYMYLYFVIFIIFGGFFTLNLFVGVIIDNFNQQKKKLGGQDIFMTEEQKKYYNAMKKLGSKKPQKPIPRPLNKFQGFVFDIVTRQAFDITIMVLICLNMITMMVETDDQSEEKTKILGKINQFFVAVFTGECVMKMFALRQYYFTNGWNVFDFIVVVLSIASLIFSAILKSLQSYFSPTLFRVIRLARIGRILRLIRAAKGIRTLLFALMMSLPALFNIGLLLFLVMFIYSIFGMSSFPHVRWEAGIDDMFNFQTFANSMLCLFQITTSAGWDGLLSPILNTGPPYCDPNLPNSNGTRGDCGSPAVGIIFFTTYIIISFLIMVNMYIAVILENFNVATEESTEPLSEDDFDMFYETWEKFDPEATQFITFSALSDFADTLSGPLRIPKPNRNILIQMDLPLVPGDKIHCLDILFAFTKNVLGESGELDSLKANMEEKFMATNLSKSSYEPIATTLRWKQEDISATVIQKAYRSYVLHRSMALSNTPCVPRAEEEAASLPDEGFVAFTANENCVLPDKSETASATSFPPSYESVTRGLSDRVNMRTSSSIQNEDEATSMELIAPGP

[7] = biological target: T3, Nav1.5 (sodium channel protein type 5 subunit alpha) (Homo sapiens, UniProt Q14524); experiment: Inhibition of human Nav1.5 channel at 3 uM
Rattus norvegicus [8] = experiment: Antinociceptive activity in ip dosed Sprague-Dawley rat assessed as reduction of mechanical allodynia in Bennett model of neuropathic pain; format: functional; set-up: Activity: scale not given: the % may be the effect or the level left
[9] = biological target: Sodium channel protein type 5 subunit alpha (Homo sapiens, UniProt Q14524); experiment: Inhibition of human Nav1.5 channel at 1 uM
[10] = Activity at rat dorsal root ganglion in resting state with prepulse voltage of -100 mV assessed as blockade of TTx-resistant sodium current at 0.3 uM by whole-cell patch clamp technique; format: functional
[11] = Half life in Sprague-Dawley rat; format: ADME, organism-based; details: in vivo
[12] = biological target: T2, Sodium channel protein type 10 subunit alpha; experiment: Activity at human recombinant Nav 1.8 channel expressed in HEK293 cells in inactivated state with prepulse voltage of -40 mV assessed as blockade of TTx-resistant sodium current at 0.003 uM; format: cell-based
[13] = biological target: T4, 5-hydroxytryptamine receptor 2A (Homo sapiens, UniProt P28223); experiment: Binding affinity to 5HT2A receptor
T4 sequence (P28223 whole entry): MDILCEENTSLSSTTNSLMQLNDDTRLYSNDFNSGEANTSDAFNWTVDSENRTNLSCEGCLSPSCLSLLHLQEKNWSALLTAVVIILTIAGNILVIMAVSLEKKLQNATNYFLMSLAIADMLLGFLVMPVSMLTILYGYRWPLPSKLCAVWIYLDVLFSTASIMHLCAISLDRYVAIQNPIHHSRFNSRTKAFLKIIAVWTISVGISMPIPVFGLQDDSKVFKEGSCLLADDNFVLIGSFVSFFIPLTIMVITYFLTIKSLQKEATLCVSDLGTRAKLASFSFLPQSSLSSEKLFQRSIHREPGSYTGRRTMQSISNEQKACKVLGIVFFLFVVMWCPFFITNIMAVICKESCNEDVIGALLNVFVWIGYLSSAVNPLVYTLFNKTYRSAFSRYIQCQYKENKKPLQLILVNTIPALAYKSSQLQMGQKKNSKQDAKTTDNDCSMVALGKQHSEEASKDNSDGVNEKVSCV

[14] = biological target: Sodium channel protein type 9 subunit alpha (Homo sapiens) (UniProt Q15858); experiment: Inhibition of human Nav1.7 channel at 10 uM
[15] = biological target: T2, Sodium channel protein type 10 subunit alpha; experiment: Inhibition of human recombinant Nav 1.8 channel expressed in HEK293 cells at 0.01 uM; format: cell-based
Translocator protein [16] = biological target: T5, Translocator protein (Homo sapiens, UniProt P30536); experiment: Binding affinity to peripheral benzodiazepine receptor at 10 uM
T5 sequence (P30536 whole entry): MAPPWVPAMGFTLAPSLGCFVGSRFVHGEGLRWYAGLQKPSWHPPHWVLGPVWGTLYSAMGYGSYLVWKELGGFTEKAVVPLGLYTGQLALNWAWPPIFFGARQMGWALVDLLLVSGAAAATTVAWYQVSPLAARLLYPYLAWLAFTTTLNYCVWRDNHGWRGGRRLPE

[17] = biological target: Sodium channel protein type 2 subunit alpha (Homo sapiens) (UniProt Q99250); experiment: Inhibition of human Nav1.2 channel at 10 uM
[18] = biological target: T2, Sodium channel protein type 10 subunit alpha; experiment: Activity at human recombinant Nav 1.8 channel expressed in HEK293 cells in inactivated state with prepulse voltage of -40 mV assessed as blockade of TTx-resistant sodium current at 0.01 uM; format: cell-based
[19] = biological target: T2, Sodium channel protein type 10 subunit alpha; experiment: Activity at human recombinant Nav 1.8 channel expressed in HEK293 cells in resting state with prepulse voltage of -100 mV assessed as blockade of TTx-resistant sodium current at 0.003 uM; format: cell-based
[20] = Intrinsic clearance in Sprague-Dawley rat microsomes after 1 hr; format: ADME, Liver, Microsome
[21] = biological target: T4, 5-hydroxytryptamine receptor 2A; details: 10 uM
[22] = biological target: T3, Nav1.5 (sodium channel protein type 5 subunit alpha); experiment: Inhibition of human Nav1.5 channel at 10 uM
[23] = Activity at rat dorsal root ganglion in inactivated state with prepulse voltage of -40 mV assessed as blockade of TTx-resistant sodium current at 0.3 uM by whole-cell patch clamp technique; format: functional
D(1A) dopamine receptor [24] = biological target: T6, D(1A) dopamine receptor (Homo sapiens, UniProt P21728); details: 10 uM
T6 sequence (P21728 whole entry): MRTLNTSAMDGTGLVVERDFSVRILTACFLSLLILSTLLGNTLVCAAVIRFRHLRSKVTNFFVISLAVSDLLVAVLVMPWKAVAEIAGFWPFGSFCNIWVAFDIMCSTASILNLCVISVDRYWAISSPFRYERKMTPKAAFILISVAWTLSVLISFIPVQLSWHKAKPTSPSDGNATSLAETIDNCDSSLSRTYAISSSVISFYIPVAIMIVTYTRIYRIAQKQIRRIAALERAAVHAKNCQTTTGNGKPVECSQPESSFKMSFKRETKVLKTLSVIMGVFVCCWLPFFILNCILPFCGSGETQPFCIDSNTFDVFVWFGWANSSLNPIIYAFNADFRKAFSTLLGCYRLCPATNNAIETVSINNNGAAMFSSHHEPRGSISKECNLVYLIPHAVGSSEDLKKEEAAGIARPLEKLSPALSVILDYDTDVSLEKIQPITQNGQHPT

Translocator protein [25] = biological target: T5, Translocator protein; experiment: Binding affinity to peripheral benzodiazepine receptor
[26] = Ratio of drug level in brain to plasma in Sprague-Dawley rat; format: ADME
[27] = biological target: Sodium channel protein type 9 subunit alpha (Homo sapiens) (UniProt Q15858); experiment: Inhibition of human Nav1.7 channel at 3 uM
[28] = Binding affinity to melatonin receptor 1
[29] = biological target: Sodium channel protein type 3 subunit alpha (Homo sapiens) (UniProt Q9NY46); experiment: Inhibition of human Nav1.3 channel at 3 uM
[30] = Activity at rat dorsal root ganglion in resting state with prepulse voltage of -100 mV assessed as blockade of TTx-resistant sodium current at 0.1 uM by whole-cell patch clamp technique; format: functional
D(1A) dopamine receptor [31] = biological target: T6, D(1A) dopamine receptor; experiment: Binding affinity to dopamine D1 receptor
[32] = biological target: T2, Sodium channel protein type 10 subunit alpha; experiment: Activity at human recombinant Nav 1.8 channel expressed in HEK293 cells in resting state with prepulse voltage of -100 mV assessed as blockade of TTx-resistant sodium current at 0.01 uM; format: cell-based
[33] = biological target: T7, Cholecystokinin receptor type A (Homo sapiens) (UniProt P32238); details: 10 uM
T7 sequence (whole entry): T1 sequence (P32238 whole entry)

[34] = Activity at rat dorsal root ganglion in inactivated state with prepulse voltage of -40 mV assessed as blockade of TTx-resistant sodium current at 0.1 uM by whole-cell patch clamp technique; format: functional
[35] = biological target: Sodium channel protein type 10 subunit alpha (Mus musculus, UniProt Q6QIY3); experiment: Inhibition of mouse recombinant Nav 1.8 channel expressed in HEK293 cells by isotopic efflux assay; format: cell-based
[36] = Volume of distribution at steady state in Sprague-Dawley rat; format: ADME, organism-based; details: in vivo, read-out: Vdss
[37] = Rattus norvegicus, Sprague-Dawley, ip

For `COc1cc(NC(=O)c2ccc(-c3ccc(Cl)cc3)o2)cc(OC)c1`, the Activity (Rattus norvegicus [1]) was 70%, the ED50 (Rattus norvegicus [1]; [37]) was 47 mg/kg and the Activity (Rattus norvegicus [2]) was 64%. For the same compound, the ED50 (Rattus norvegicus [2]; [37]) was 41 mg/kg, the inhibition [3] was 41% and the inhibition [4] was 70%. The IC50 [5] was > 2000 nM, the inhibition [6] was 30% and the inhibition at 3 µM [7] was 44%. The Activity (Rattus norvegicus [8]) was 56%, the ED50 (Rattus norvegicus [8]; [37]) was 85 mg/kg and the IC50 [9] was > 2000 nM. For the same compound, the inhibition at 0.3 µM [10] was 48%, the half-life [11] was 7.3 h and the inhibition [12] was 30%. For the same compound, the IC50 [13] was > 2000 nM, the inhibition [14] was 54% and the inhibition [15] was 59%. The inhibition (Translocator protein [16]) was > 60%, the inhibition [17] was 53% and the inhibition [18] was 59%. The inhibition [19] was 5%, the microsomal CLint [20] was 140 µL/min/mg and the inhibition [21] was > 60%. For the same compound, the inhibition at 10 µM [22] was 49%, the inhibition at 0.3 µM [23] was 71% and the inhibition (D(1A) dopamine receptor [24]) was > 60%. For the same compound, the IC50 (Translocator protein [25]) was > 2000 nM, the Kp [26] was 1.1 and the inhibition [27] was 42%. The IC50 [28] was > 2000 nM, the inhibition [29] was 52% and the inhibition at 0.1 µM [30] was 14%. The IC50 (D(1A) dopamine receptor [31]) was > 2000 nM, the inhibition [32] was 19% and the inhibition [33] was > 60%. The inhibition at 0.1 µM [34] was 48%, the IC50 [35] was 850 nM and the Vd [36] was 6.4 L/kg.
